Data on seven molecules can be found in publication PMC7472185 (Viruses, 2020).

For one data set, the target named is HBV RT (Hepatitis B virus genotype C subtype adr, UniProt P12933). The data set can be described thus: T/P and substrate binding assay (cell-free), poly(rA)/oligo(dT) with DIG-dUTP. As to conditions: for inhibition at 10 µM / inhibition at 100 µM: read-out: % Inhibition to HBV RT of cell-free assay; for Inhibitory effect on T/P and substrate binding activity of HBV RT: poly(rA)/oligo(dT).
HBV RT, sequence (P12933 347-690): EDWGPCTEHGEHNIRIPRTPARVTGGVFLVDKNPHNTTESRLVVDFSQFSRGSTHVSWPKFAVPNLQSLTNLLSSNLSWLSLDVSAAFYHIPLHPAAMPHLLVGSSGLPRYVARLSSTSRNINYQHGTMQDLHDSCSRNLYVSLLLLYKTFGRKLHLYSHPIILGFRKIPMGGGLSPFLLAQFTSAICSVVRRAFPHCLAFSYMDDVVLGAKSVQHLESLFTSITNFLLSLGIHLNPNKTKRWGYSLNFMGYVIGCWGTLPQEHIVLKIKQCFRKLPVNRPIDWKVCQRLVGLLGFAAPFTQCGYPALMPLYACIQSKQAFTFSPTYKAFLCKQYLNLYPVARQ

Data set [1] can be described thus: Cytotoxicity, CellTiter-Glo, NTCP/G2 cells. As to conditions: human, NTCP-expressing HepG2 (NTCP/G2) cells, day 9. It is filed as cell-based. On the technique in general: ATP-based viability assays read luminescence as a measure of living cells.
The nature of data set [2]: Cytotoxicity, CellTiter-Glo, HB611 cells. As to conditions: human; HB611 cells, day 9. The class given is cell-based, human.
The subject of data set [3] is HBeAg. The data set can be described thus: HBeAg ELISA of supernatant, HBV infection system NTCP/G2. It is filed as cell-based, Hepatitis B virus. As to conditions: NTCP/G2, day 9.
Data set [4] deals with HBV. The data set can be described thus: Intracellular core-associated HBV DNA by qPCR, NTCP/G2 infection system. It is filed as cell-based, Hepatitis B virus.
For another data set, the system named is HBV cccDNA. In words: cccDNA by qPCR (Hirt DNA), NTCP/G2 infection system. As to conditions: NTCP/G2 cells. The class given is cell-based, Hepatitis B virus. Background: Quantitative PCR measures a nucleic acid by following its amplification.
The next data set relates to HBsAg. In words: HBsAg ELISA of supernatant, HB611 cells. The class given is cell-based, Hepatitis B virus. As to conditions: suramin, KB-R7943, compound 3 up to 50, 20, and 25 µM, respectively. Background: In an ELISA, binding on a coated surface is turned into a signal by an enzyme label.
Data set [5] has as its system HBeAg. In words: HBeAg ELISA of supernatant, HB611 cells. It is filed as cell-based, Hepatitis B virus. As to conditions: suramin, KB-R7943, compound 3 up to 50, 20, and 25 µM, respectively.
The subject of data set [6] is HBV. The data set can be described thus: Intracellular core-associated HBV DNA by qPCR, HB611 cells. It is filed as cell-based, Hepatitis B virus.
Data set [7] concerns HBV. The data set can be described thus: microbe, parasite or virus in culture. It is filed as cell-based, Hepatitis B virus. As to conditions: HB611 cells, read-out: IC50 for extracellular HBV production.
The test system of data set [8] is NTCP-expressing HepG2 (NTCP/G2) cells. The data set can be described thus: Cytotoxicity, CellTiter-Glo, NTCP/G2 cells. The class given is cell-based. As to conditions: day 9.
A further data set deals with HB611 cells. The data set can be described thus: Cytotoxicity, CellTiter-Glo, HB611 cells. The class given is cell-based, human.

Each structure is given as a SMILES string. Like-named read-outs stand apart in the source and are kept apart here.

Turning to `CC(=O)c1c(O)c(C)c(O)c(Cc2c(O)c3c(c(C(=O)/C=C/c4ccccc4)c2O)OC(C)(C)C=C3)c1O` [Rottlerin], on HBV RT, the inhibition at 10 µM amounted to 35% and the inhibition at 100 µM turned out to be 98%.

For the molecule `O=C(Nc1cccc(C(=O)Nc2ccc(S(=O)(=O)O)c3cc(S(=O)(=O)O)cc(S(=O)(=O)O)c23)c1)Nc1cccc(C(=O)Nc2ccc(S(=O)(=O)O)c3cc(S(=O)(=O)O)cc(S(=O)(=O)O)c23)c1` [NF023], the “% Inhibition to HBV RT of cell-free assay” value at HBV RT (10 µM compound) came to 26%; at HBV RT (100 µM compound), 96%.

Consider `Cc1ccc(C(=O)Nc2ccc(S(=O)(=O)O)c3cc(S(=O)(=O)O)cc(S(=O)(=O)O)c23)cc1NC(=O)c1cccc(NC(=O)Nc2cccc(C(=O)Nc3cc(C(=O)Nc4ccc(S(=O)(=O)O)c5cc(S(=O)(=O)O)cc(S(=O)(=O)O)c45)ccc3C)c2)c1` [Suramin], for which, at HBV RT (10 µM compound), the “Inhibitory effect on T/P and substrate binding activity of HBV RT” value is “showed the higher inhibitory effects”. Besides, the inhibition at 10 µM at HBV RT (10 µM compound) came to 69%. Moreover, the inhibition at 100 µM at HBV RT (100 µM compound) is 97%. In addition, the values for the CC50 at 9 days in [1] and in data set [2] were > 200 µM and 168 µM, respectively. In addition, in the data set on HBeAg [3], the “HBeAg expression in the culture supernatant” value was “reduced”. Also, the IC50 in the data set on HBV [4] (Hepatitis B virus, 216 h, read-out: putative IC50, core-associated HBV DNA) stood at 270 nM; with HBV [6] (Hepatitis B virus, HB611, read-out: IC50 for core-associated DNA), 26.4 µM; in the data set on HBV [7] (Hepatitis B virus), 16.8 µM. In addition, the “cccDNA levels” value with HBV cccDNA is “reduced”. Besides, in the data set on HBsAg, the “HBsAg secretion” value is “no changes”. Further, the “HBeAg secretion” value in the data set on HBeAg [5] was “no changes”.

`N=C(N)SCCc1ccc(OCc2ccc([N+](=O)[O-])cc2)cc1` [KB-R7943]: the “Inhibitory effect on T/P and substrate binding activity of HBV RT” value at HBV RT (10 µM compound) is on record as “showed the higher inhibitory effects”. Besides, the CC50 in [8] was found to be 37.4 µM; with HB611 cells, 41.9 µM. Besides, the “HBeAg expression in the culture supernatant” value in the data set on HBeAg [3] is reported as “did not change”. For the same molecule, the “putative IC50, core-associated HBV DNA” value in the data set with HBV [4] (NTCP/G2, day 9) worked out at 7.37 µM. In addition, in the data set with HBsAg, the “HBsAg secretion” value is on record as “no changes”. For the same molecule, in the data set with HBeAg [5], the “HBeAg secretion” value is recorded as “no changes”. Moreover, the “Core-associated DNA” value with HBV [6] (HB611 cells) is given as “modest decrease”. The IC50 with HBV [7] stood at 3.7 µM.

As to `Nc1c(S(=O)(=O)O)cc(Nc2ccc(Nc3nc(Cl)nc(Nc4cccc(S(=O)(=O)O)c4)n3)c(S(=O)(=O)O)c2)c2c1C(=O)c1ccccc1C2=O` [Reactive blue 2], the inhibition at 10 µM at HBV RT (10 µM compound) amounted to 53%. At HBV RT (100 µM compound), the inhibition at 100 µM was found to be 100%.

Regarding `C=CC1=C(C)c2cc3[nH]c(cc4nc(cc5[nH]c(cc1n2)c(C)c5CCC(=O)O)C(CCC(=O)O)=C4C)c(C)c3C=C` [protoporphyrin IX disodium], on HBV RT (10 µM compound), the “Inhibitory effect on T/P and substrate binding activity of HBV RT” value is “showed the higher inhibitory effects”.

For `Cc1cc2c(C(C)C)c(O)c(O)c(C=O)c2c(O)c1-c1c(C)cc2c(C(C)C)c(O)c(O)c(C=O)c2c1O` [Gossypol], on HBV RT (10 µM compound), the “Inhibitory effect on T/P and substrate binding activity of HBV RT” value was “showed the higher inhibitory effects”; the inhibition at 10 µM worked out at 92%. Moreover, the inhibition at 100 µM on HBV RT (100 µM compound) is 97%.

The term inhibition denotes how much of the control response was suppressed. What is called CC50 is the concentration that lowers cell viability or growth by half. High values mean lower toxicity to the cells, low ones greater toxicity to the cells. The IC50 is the concentration at which inhibition is half-maximal.
